We go through 19 compounds from patent publication US10174016B2 (BAYER AKTIENGESELLSCHAFT, priority 2014, dated 2019).

Experiment [1] has as its target human P2X2/3 receptor (Homo sapiens (Human), UniProt P56373+Q9UBL9). The experiment is described as follows: Intracellular calcium measurement (FLIPR, Fluo-4) of antagonist activity at human P2X2/3 receptors. Type of experiment: cell-based. A digest of the protocol:
(§1)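 Antagonism quantified from peak calcium fluorescence (Fluo-4, FLIPR, 90 sec read) evoked by EC80 α,β-Me-ATP, after a 30 min, 37° C. compound pretreatment in 1% DMSO. Human P2X3- or P2X2/3-expressing cells used; triplicate means fitted for IC50, percent maximal inhibition and Hill coefficient.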
For orientation: Calcium flux is commonly read through the fluorescence of an indicator in the cells.

The target in experiment [2] is human P2X3 receptor (Homo sapiens (Human), UniProt P56373). The experiment is described as follows: Intracellular calcium measurement (FLIPR, Fluo-4) of antagonist activity at human P2X3 receptors. Type of experiment: cell-based. To be noted: read-out: hP2X3 IC50. Put shortly: as §1
Chain of human P2X3 receptor (P56373 whole entry): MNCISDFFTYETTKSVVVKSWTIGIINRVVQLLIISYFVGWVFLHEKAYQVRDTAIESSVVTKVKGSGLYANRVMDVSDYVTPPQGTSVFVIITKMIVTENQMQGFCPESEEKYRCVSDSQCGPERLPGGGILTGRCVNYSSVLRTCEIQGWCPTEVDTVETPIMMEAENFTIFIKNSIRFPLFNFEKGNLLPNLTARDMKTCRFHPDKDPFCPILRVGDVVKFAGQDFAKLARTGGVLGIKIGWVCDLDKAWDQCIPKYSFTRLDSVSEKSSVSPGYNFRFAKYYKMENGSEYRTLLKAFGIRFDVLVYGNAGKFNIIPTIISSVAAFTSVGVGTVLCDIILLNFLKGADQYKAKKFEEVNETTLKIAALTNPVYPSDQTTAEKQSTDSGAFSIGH
The mark [3] stands for this setting: human P2X2/3, FLIPR calcium assay, agonist α,β-Me-ATP, read-out: hP2X2/3 IC50.
Setting [4] is: human P2X3, FLIPR calcium assay, agonist α,β-Me-ATP.

Structures are written as SMILES. Like-named read-outs stand apart in the source and are kept apart here. Where only a bound is given, the exact number is not on record here.

Chain of human P2X2/3 receptor (P56373 whole entry): as above
Chain of human P2X2/3 receptor (Q9UBL9 whole entry): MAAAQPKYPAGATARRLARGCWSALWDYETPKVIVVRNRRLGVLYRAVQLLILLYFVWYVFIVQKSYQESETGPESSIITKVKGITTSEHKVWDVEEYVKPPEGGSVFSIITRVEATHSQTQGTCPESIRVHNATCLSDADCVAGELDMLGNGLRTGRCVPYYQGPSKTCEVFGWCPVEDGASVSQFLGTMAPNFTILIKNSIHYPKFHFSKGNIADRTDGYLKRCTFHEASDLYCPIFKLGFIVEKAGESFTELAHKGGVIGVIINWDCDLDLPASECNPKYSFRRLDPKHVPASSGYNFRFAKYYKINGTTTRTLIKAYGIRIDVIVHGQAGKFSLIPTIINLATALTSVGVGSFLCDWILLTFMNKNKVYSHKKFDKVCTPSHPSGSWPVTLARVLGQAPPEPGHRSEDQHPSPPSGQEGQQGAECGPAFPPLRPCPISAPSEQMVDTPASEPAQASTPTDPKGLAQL

For `C#CCOc1cc(C(=O)N[C@H](C)c2cnc(C(F)(F)F)nc2)cc(-c2ncc(C)s2)c1` [Example 36, 3-(5-Methyl-1,3-thiazol-2-yl)-5-(prop-2-yn-1-yloxy)-N-{(1R)-1-[2-(trifluoromethyl)pyrimidin-5-yl]ethyl}benzamide], the IC50 in experiment [1] (setting [3]) worked out at 306 nM; in experiment [2] (setting [4]) it was 14 nM.

Take `CCc1cnc(-c2cc(OCC3(F)CN(C)C3)cc(C(=O)N[C@H](C)c3ccc(C(F)(F)F)nc3)c2)s1` [Example 387, 3-(5-ethyl-1,3-thiazol-2-yl)-5-[(3-fluoro-1-methylazetidin-3-yl)methoxy]-N-{(1R)-1-[6-(trifluoromethyl)pyridin-3-yl]ethyl}benzamide]: the IC50 in experiment [1] (setting [3]) amounted to 461 nM; in experiment [2] (setting [4]) it was 19 nM.

As to `Cc1ccc([C@@H](C)NC(=O)c2cc(OC[C@H]3CCCO3)cc(-c3ncc(C)s3)c2)nn1` [Example 61, N-[(1R)-1-(6-methylpyridazin-3-yl)ethyl]-3-(5-methyl-1,3-thiazol-2-yl)-5-[(2R)-tetrahydrofuran-2-ylmethoxy]benzamide], the IC50 stood at 428 nM in experiment [1] (setting [3]) and 14 nM in experiment [2] (setting [4]).

Take `Cc1ccc([C@@H](C)NC(=O)c2cc(O[C@H]3CCOC3)cc(-c3ncc(C)s3)c2)nc1` [Example 28, N-[(1R)-1-(5-Methylpyridin-2-yl)ethyl]-3-(5-methyl-1,3-thiazol-2-yl)-5-[(3S)-tetrahydrofuran-3-yloxy]benzamide]: the IC50 in experiment [1] (setting [3]) is 121 nM; in experiment [2] (setting [4]), 48 nM.

In the case of `COC(C)(C)COc1cc(C(=O)N[C@H](C)c2cnc(C)cn2)cc(-c2ncc(Cl)s2)c1` [Example 117, 3-(5-Chloro-1,3-thiazol-2-yl)-5-(2-methoxy-2-methylpropoxy)-N-[(1R)-1-(5-methylpyrazin-2-yl)ethyl]benzamide], the IC50 in experiment [1] (setting [3]) worked out at 883 nM; in experiment [2] (setting [4]), 36 nM.

In the case of `Cc1cnc(-c2cc(O[C@@H]3CCN(C)C3)cc(C(=O)N[C@H](C)c3cnc(C(F)(F)F)nc3)c2)s1` [Example 141, 3-{[(3R)-1-Methylpyrrolidin-3-yl]oxy}-5-(5-methyl-1,3-thiazol-2-yl)-N-{(1R)-1-[2-(trifluoromethyl)pyrimidin-5-yl]ethyl}benzamide], the IC50 in experiment [1] (setting [3]) is 2200 nM; in experiment [2] (setting [4]), 43 nM.

Take `Cc1cnc(-c2cc(OCC3CNCCO3)cc(C(=O)N[C@H](C)c3cnc(C(F)(F)F)nc3)c2)s1` (stereo partly drawn) [Example 352, 3-(5-Methyl-1,3-thiazol-2-yl)-5-[morpholin-2-ylmethoxy]-N-{(1R)-1-[2-(trifluoromethyl)pyrimidin-5-yl]ethyl}benzamide]: the figures for the IC50 in experiment [1] (setting [3]) and in experiment [2] (setting [4]) were 1140 nM and 18 nM, respectively.

`Cc1ncc([C@@H](C)NC(=O)c2cc(O[C@H]3CCOC3)cc(-c3ncc(C)s3)c2)cn1` [Example 130, N-[(1R)-1-(2-Methylpyrimidin-5-yl)ethyl]-3-(5-methyl-1,3-thiazol-2-yl)-5-[(3S)-tetrahydrofuran-3-yloxy]benzamide]: the IC50 in experiment [1] (hP2X2/3 IC50 (nM)) came out at 1350 nM; in experiment [2], 74 nM.

Regarding `CC(C)c1cnc(-c2cc(OC[C@@H]3CCOC3)cc(C(=O)N[C@H](C)c3cnc(C(F)(F)F)nc3)c2)s1` [Example 266, 3-[5-(propan-2-yl)-1,3-thiazol-2-yl]-5-[(3R)-tetrahydrofuran-3-ylmethoxy]-N-{(1R)-1-[2-(trifluoromethyl)pyrimidin-5-yl]ethyl}benzamide], the IC50 came out at 367 nM in experiment [1] (setting [3]) and 41 nM in experiment [2] (setting [4]).

Take `Cc1cnc(-c2cc(OC[C@@H]3CN(C)CCO3)cc(C(=O)N[C@@H](C)c3cnc(C(F)(F)F)nc3)c2)s1` [Example 417, 3-{[(2S)-4-methylmorpholin-2-yl]methoxy}-5-(5-methyl-1,3-thiazol-2-yl)-N-{(1S)-1-[2-(trifluoromethyl)pyrimidin-5-yl]ethyl}benzamide]: the IC50 in experiment [1] (setting [3]) is at least 10000 nM; in experiment [2], 434 nM.

Turning to `CCc1cnc(-c2cc(OC3COC3)cc(C(=O)N[C@H](C)c3cnc(C(F)(F)F)nc3)c2)s1` [Example 169, 3-(5-ethyl-1,3-thiazol-2-yl)-5-(oxetan-3-yloxy)-N-{(1R)-1-[2-(trifluoromethyl)pyrimidin-5-yl]ethyl}benzamide], the IC50 in experiment [1] (setting [3]) is 70 nM; in experiment [2] (setting [4]), 9 nM.

With `Cc1ccc([C@@H](C)NC(=O)c2cc(O[C@@H]3CCOC3)cc(-c3ncc(C)s3)c2)nn1` [Example 18, N-[(1R)-1-(6-methylpyridazin-3-yl)ethyl]-3-(5-methyl-1,3-thiazol-2-yl)-5-[(3R)-tetrahydrofuran-3-yloxy]benzamide], the IC50 in experiment [1] (setting [3]) is 427 nM; in experiment [2] (setting [4]) it was 34 nM.

`Cc1cnc([C@@H](C)NC(=O)c2cc(OC3CCN(CC(F)(F)F)CC3)cc(-c3ncc(C)s3)c2)cn1` [Example 313, N-[(1R)-1-(5-methylpyrazin-2-yl)ethyl]-3-(5-methyl-1,3-thiazol-2-yl)-5-{[1-(2,2,2-trifluoroethyl)piperidin-4-yl]oxy}benzamide]: the IC50 in experiment [1] (setting [3]) stood at 200 nM; in experiment [2] (setting [4]) it was 11 nM.

Regarding `Cc1cnc(-c2cc(O[C@@H]3CCOC3)cc(C(=O)NCc3ccc(C(F)(F)F)nn3)c2)s1` [Example 21, 3-(5-Methyl-1,3-thiazol-2-yl)-5-[(3R)-tetrahydrofuran-3-yloxy]-N-{[6-(trifluoromethyl)pyridazin-3-yl]methyl}benzamide], the figures for the IC50 in experiment [1] (setting [3]) and in experiment [2] (setting [4]) were 445 nM and 71 nM, respectively.

On to `Cc1ncc([C@@H](C)NC(=O)c2cc(OCC3CCOCC3)cc(-c3ncc(C4CCC4)s3)c2)cn1` [Example 124, 3-(5-Cyclobutyl-1,3-thiazol-2-yl)-N-[(1R)-1-(2-methylpyrimidin-5-yl)ethyl]-5-(tetrahydro-2H-pyran-4-ylmethoxy)benzamide], for which the IC50 in experiment [1] (setting [3]) is 165 nM; in experiment [2] (setting [4]) it was 27 nM.

As for `Cc1cnc(-c2cc(O[C@H]3CCOC3)cc(C(=O)N[C@H](C)c3cnc(C(F)F)nc3)c2)s1` [Example 151, N-{(1R)-1-[2-(difluoromethyl)pyrimidin-5-yl]ethyl}-3-(5-methyl-1,3-thiazol-2-yl)-5-[(3S)-tetrahydrofuran-3-yloxy]benzamide], the IC50 came out at 333 nM in experiment [1] (setting [3]) and 31 nM in experiment [2] (setting [4]).

Consider `Cc1ccc(CNC(=O)c2cc(OCC3CCOCC3)cc(-c3ncc(C(F)(F)F)s3)c2)nn1` [Example 118, N-[(6-Methylpyridazin-3-yl)methyl]-3-(tetrahydro-2H-pyran-4-ylmethoxy)-5-[5-(trifluoromethyl)-1,3-thiazol-2-yl]benzamide], for which the IC50 in experiment [1] (setting [3]) was found to be 1130 nM; in experiment [2] (setting [4]) it was 198 nM.

With `CC(C)c1cnc(-c2cc(O[C@H]3CCOC3)cc(C(=O)N[C@H](C)c3cnc(C(F)(F)F)nc3)c2)s1` [Example 257, 3-[5-(propan-2-yl)-1,3-thiazol-2-yl]-5-[(3S)-tetrahydrofuran-3-yloxy]-N-{(1R)-1-[2-(trifluoromethyl)pyrimidin-5-yl]ethyl}benzamide], the values for the IC50 in experiment [1] (setting [3]) and in experiment [2] (setting [4]) were 324 nM and 47 nM, respectively.

In the case of `Cc1cnc(-c2cc(OC[C@H]3CN(CC(F)F)CCO3)cc(C(=O)N[C@H](C)c3cnc(C(F)(F)F)nc3)c2)s1` [Example 391, 3-{[(2R)-4-(2,2-difluoroethyl)morpholin-2-yl]methoxy}-5-(5-methyl-1,3-thiazol-2-yl)-N-{(1R)-1-[2-(trifluoromethyl)pyrimidin-5-yl]ethyl}benzamide], the figures for the IC50 in experiment [1] (setting [3]) and in experiment [2] (setting [4]) were 840 nM and 19 nM, respectively.
